Assay results as given in patent publication US20230332232A1, “COMPOSITIONS AND METHODS FOR DIAGNOSING AND TREATING A DYSTONIA” (Duke University, priority 2020, published 2023).

System: wild-type (WT) murine embryonic fibroblasts (MEFs)
Assay: Untargeted LC/MS/MS proteomics of EVs from WT MEFs exposed 24 hours to drug, compared with untreated WT MEFs
Type: cell-based, mouse
Description: Methods for isolation and purification of exosomes and extracellular vesicles (EV) were extensively reviewed. Experiments were performed to arrive at a robust and reproducible protocol. The protocol used herein is that set forth in Théry et al, 2006, which is incorporated by reference for it teaching of this protocol. This protocol involves depleting serum-derived EVs from cell culture media by overnight ultracentrifugation and exchanging media for 1% FBS EV-depleted media. Media is then collected from cells following a 24-hour conditioning period and EVs are isolated by 18-hour ultracentrifugation at 100,000 g (FIG. 1A).
EVs were isolated from media of cultured murine embryonic fibroblasts (MEFs) prepared in-house according to protocols described by Xu 2005 from DYT1 knockin mice (Tor1a^delGAG/+) (Goodchild R E, et al. (2005) Neuron. 48:923-932) and littermate wild-type (WT) controls. The cultured MEFs from the DYT1 mice were exposed for 24 hours to Ritonavir (RTV) while the MEFs from WT mice were exposed to vehicle, ISRIB, or Salubrinal (SAL). The EVs isolated from these WT cells and DYT1 were characterized by untargeted proteomics and RNA-seq to identify differentially expressed proteins and RNAs as candidate biomarkers. Experimenter and Proteomics core staff were blinded to genotype of cell cultures throughout preparation and analysis phases. EV isolation was confirmed by Western immunoblot documenting presence of the exosomal marker (TSG101) and absence of the endoplasmic reticulum (ER) marker (CANX) (FIG. 1B (Cohort 1) and FIG. 1C (Cohort 2)).
Following the bicinchoninic acid assay (BCA) analysis and Western immunoblot of a portion of samples for QC, 11.6 μg-129.2 μg of EV protein lysates in RIPA buffer were sent to the Duke Proteomics and Metabolomics Shared Resource core facility for LC/MS/MS quantitative proteomic analysis. Samples were first normalized to 20 μg and spiked with undigested casein at a total of 40 fmol/μg, 80 fmol/μg, or 160 fmol/μg, then reduced with 10 mM dithiolthreitol for 30 minute at 80° C. and alkylated with 20 mM iodoacetamide for 30 minutes at room temperature. Next, the samples were supplemented with a final concentration of 1.2% phosphoric acid and 741 μL of S-Trap (Protifi) binding buffer (90% MeOH/100 mM […]). Proteins were trapped on the S-Trap, digested using 20 ng/μL sequencing grade trypsin (Promega) for 1 hour at 47° C., and eluted using 50 mM TEAB, followed by 0.2% FA, and lastly using 50% CAN/0.2% FA. All samples were then lyophilized to dryness and resuspended in 40 μL 1% TFA/2% acetonitrile containing 12.5 fmol/μL yeast alcohol dehydrogenase (ADH_YEAST). A QC Pool was created from 3 uL of each sample. All QC Pools were run periodically throughout the acquisition period.
Quantitative LC/MS/MS was performed on 2 μL of each sample, using a nanoAcquity UPLC system (Waters Corp) coupled to a Thermo Orbitrap Fusion Lumos high resolution accurate mass tandem mass spectrometer (Thermo) via a nanoelectrospray ionization source. Briefly, the sample was first trapped on a Symmetry C18 20 mm×180 μm trapping column (5 μL/min at 99.9/0.1 v/v water/acetonitrile), after which the analytical separation was performed using a 1.8 μm Acquity HSS T3 C18 75 μm×250 mm column (Waters Corp.) with a 90 minute linear gradient of 5% to 30% acetonitrile with 0.1% formic acid at a flow rate of 400 nanoliters/minute (nL/min) with a column temperature of 55° C. Data collection on the Fusion Lumos mass spectrometer was performed in a data-dependent acquisition (DDA) mode of acquisition with a r=120,000 (@ m/z 200) full MS scan from m/z 375-1500 with a target AGC value of 2e5 ions. MS/MS scans were acquired at Rapid scan rate (Ion Trap) with an AGC target of 5e3 ions and a max injection time of 100 ms. The total cycle time for MS and MS/MS scans was 2 seconds. A 20 second dynamic exclusion was employed to increase depth of coverage. The total analysis cycle time for each sample injection was approximately 2 hours. […]

Measured: ISRIB Direction Same as dE?

O=C(COc1ccc(Cl)cc1)NC1CCC(NC(=O)COc2ccc(Cl)cc2)CC1 (stereo not shown) [ISRIH]
yes: EV protein: 26S proteasome non-ATPase regulatory subunit 8 | EV protein: 60S [?] subunit biogenesis protein [?] homolog | EV protein: 116 kDa [?] small nuclear ribonucleoprotein component | EV protein: AP-3 complex subunit [?] | EV protein: ATP- binding cassette sub-family [?] member 1 | EV protein: ATP-dependent RNA helicase [?] | EV protein: Acetyl-CoA carboxylase 1 | EV protein: Acyl-protein thioesterase 2 | EV protein: Anaphase-promoting complex subunit 2 | EV protein: Anaphase-promoting complex subunit 4 | EV protein: Anaphase-promoting complex subunit 5 | EV protein: Anaphase-promoting complex subunit 7 | EV protein: Apolipoprotein M | EV protein: Cell [?] cycle protein [?] homolog | EV protein: Cell division cycle protein 27 homolog | EV protein: Coiled-coil domain-containing protein 22 | EV protein: Cullin-2 | EV protein: Cullin-5 | EV protein: Cullin-7 | EV protein: Cytosolic purine [?] -nucleotidase | EV protein: DNA [?] (r264) | EV protein: DNA [?] licensing factor MCM4 | EV protein: DNA ligase 1 | EV protein: DNA replication licensing factor MCM5 | EV protein: DNA replication licensing factor [?] | EV protein: DNA-directed RNA polymerase II subunit RPB1 | EV protein: DNA-directed RNA polymerase II subunit RPB2 | EV protein: DNA-directed RNA polymerase II subunit RPB3 | EV protein: DNA-directed RNA polymerase [?] subunit RPA2 | EV protein: DNA-directed RNA polymerases I, II, and III subunit RPABC3 | EV protein: DNA-directed RNA polymerases I, II, and III subunit [?] | EV protein: Developmentally-regulated GTP-binding protein 2 | EV protein: Double-strand-break repair protein rad21 homolog | EV protein: Dual specificity mitogen-activated protein kinase kinase 4 | EV protein: Dynactin subunit 4 | EV protein: E3 ubiquitin-protein ligase [?] | EV protein: Elongin-B | EV protein: Exosome complex exonuclease RRP44 | EV protein: Gamma-tubulin complex component 2 | EV protein: Glucose-6-phosphate 1-dehydrogenase [?] | EV protein: Glycosylated lysosomal membrane protein | EV protein: Glycylpeptide N-tetradecanoyltransferase 1 | EV protein: Golgi reassembly-stacking protein 2 | EV protein: Histone-arginine methyltransterase CARM1 | EV protein: Immunity-related GTPase family M protein 1 | EV protein: Interleukin enhancer-binding factor 3 | EV protein: Leucyl-cystinyl aminopeptidase | EV protein: Lysine-specific histone demethylase [?] | EV protein: Mediator [?] RNA polymerase II transcription subunit 23 | EV protein: Metastasis-associated protein [?] (r222) | EV protein: Metastasis-associated protein [?] (r261) | EV protein: Methyl-CpG-binding domain protein [?] | EV protein: Microtubule-associated protein [?] | EV protein: N-alpha-acetyltransferase 10 | EV protein: Nuclear [?] complex protein [?] | EV protein: Nuclear cap-binding protein subunit 1 | EV protein: NudC domain-containing protein 1 | EV protein: Phosphoribosyl pyrophosphate synthase-associated protein 1 | EV protein: Probable ubiquitin carboxyl-terminal hydrolase [?] | EV protein: Protein O-GlcNAcase | EV protein: Protein RMD5 homolog A | EV protein: Protein [?] 14 homolog | EV protein: Protein transport protein [?] | EV protein: Ran-binding protein 10 | EV protein: Ribosome biogenesis protein BOP1 | EV protein: Ribosome production factor 2 homolog | EV protein: Serine threonine-protein phosphatase 2A 56 kDa regulatory subunit gamma isoform | EV protein: Serine threonine-protein phosphatase 6 catalytic subinit | EV protein: Sorting nexin-1 | EV protein: Splicing factor 3B subunit 4 | EV protein: Structural maintenance of [?] protein 2 | EV protein: WASH complex subunit 5 | EV protein: WD repeat-containing protein [?] | EV protein: WW domain-binding protein 2 | EV protein: [?] 2 (r185) | EV protein: [?] (r186) | EV protein: [?] -1 (r187) | EV protein: [?] -1 (r232) | EV protein: [?] -conjucating enxyme [?] | EV protein: [?] -promoting complex subunit 1 | EV protein: [?] -related [?] -associated actin-dependent regulator [?] chromatin subfamily A member 5 | EV protein: [?] complex subunit 2 | EV protein: [?] kinase | EV protein: [?] repeat-containing protein 5A | EV protein: [?] small nuclear ribonucleoprotein 40 kDa protein | EV protein: [?] small nucleolar RNA-associated protein 15 homolog | EV protein: [?] ubiquitin-protein ligase [?] | EV protein: p21-activated protein kinase-interacting protein 1 | EV protein: transportin-3 | WT MEF EVs, protein: DNA replication licensing factor MCM6 | WT MEF EVs, protein: DNA-directed RNA polymerases I and III subunit RPAC1 | WT MEF EVs, protein: Protein arginine N-methyltransferase 3 | WT MEF EVs, protein: Scavenger receptor class B member 1 | WT MEF EVs, protein: Serine threonine-protein phosphatase 2A 55 kDa regulatory subunit B alpha isoform | WT MEF EVs, protein: Small nuclear ribonucleoprotein-associated protein B | WT MEF EVs, protein: WASH complex subunit 4 | WT MEF EVs, protein: WD repeat-containing protein 26
